# How the values were obtained:
# [1] = test system: SS tumour cell lines (HS-SY-II, ASKA, YAMOTO, CME1, SYO1); experiment: Five-day cell viability (CellTiter-Glo) in synovial sarcoma tumour cell lines; format: cell-based, human
# From the text: FIG. 8. ATR genetic dependency synovial sarcoma tumour cells—part 1. A. ATR siRNA Z scores from the siRNA screens described in FIG. 7, classified according to the cancer histology of tumour cell lines. B. Dose-response survival curves illustrating sensitivity of SS tumour cell lines to the ATR small molecule inhibitor (ATRi) VX970, compared to ATRi resistant HCT116 cells. Cells were exposed to drugs for five days and cell viability estimated using CellTiter-Glo. For each SS tumour cell line, dose response ANOVA p<0.0001 vs. HCT116. C. Dose-response survival curves illustrating sensitivity of SS tumour cell lines to VX970, compared to ATRi resistant ARID1A wild type HCT116 cells (HCT116 ARID1A^+/+) and ARID1A defective HCT116 cells (HCT116 ARID1A^−/−). Cells were exposed to drugs for five days and cell viability estimated using CellTiter-Glo. For each SS tumour cell line and HCT116 ARID1A^−/−, dose response ANOVA p<0.0001 vs. HCT116 ARID1A^+/+. D. VX970 area under the curve (AUC) values in tumour cell lines. ARID1A defective cells indicated as “ARID1A^−/−”, Ewings sarcoma tumour cell lines shown as “EWS”. E. Anti-tumour response in mice bearing established synovial sarcoma PDX, SA13412, to treatment with VX970. Median tumour volumes after the initiation of VX970 treatment are shown. Error bars represent standard error of the mean (SEM). F. Kaplan-Meier survival plot of data from (E). log rank Mantel p=0.026. G. Western blot illustrating expression of synovial sarcoma fusion proteins in HCT116 cells. A SS18-SSX1 variant with the final eight residues of SSX1 deleted (Δ71-78) is shown as d71-78. H. Bar chart illustrating induction of AXIN2 mRNA after expression of synovial sarcoma fusion proteins in HCT116 cells. I-K. Dose-response survival curves illustrating that expression of synovial sarcoma fusion proteins in HCT116 cells causes ATRi sensitivity.
# FIG. 9. ATR genetic dependency synovial sarcoma tumour cells—part 2. […] Cells were transfected with ATR siRNAs and cell viability estimated five days later by the use of Cell Titre Glo. Bar chart showing surviving fractions are shown left and middle. Western blot illustrating ATR protein silencing is shown right. Z scores from the siRNA screens described in FIG. 7, classified according to the cancer histology of tumour cell lines. B. Dose-response survival curves illustrating sensitivity of SS tumour cell lines to the ATR small molecule inhibitor (ATRi) VX970, compared to ATRi resistant HCT116 cells and non-tumour cells (HFF1, MCF10A). […]
# Having confirmed the sensitivity of SS tumour cell lines to siRNA in validation experiments (FIG. 9A), we assessed the sensitivity of the five SS tumour cell lines to the clinical ATR inhibitor (ATRi), VX970 (Vertex Pharmaceuticals). […]
# HCC1143 and HeLa cells = experiment: Surviving fraction after five days VX-970 with SMARCA4 or ARID1A siRNA; format: cell-based, human; settings: five days exposure
# Description: FIG. 6. BAF complex deficiency causes sensitivity to ATR inhibition. A. Schematic of BAF complex composition in human cells. B. VX-970 dose response curves from HCT116 cells transfected with siRNA targeting ARID1B or SMARCA4. 48 hours after transfection cells were exposed to VX-970 for 5 days. Error bars represent SD from triplicate experiments. p<0.0001, ANOVA for siARID1B and siSMARCA4 vs. siCON. C. Western blots illustrating ARID1B and SMARCA4 silencing in experiment (B). D. VX-970 dose response curves from four OCCC cell lines, 3 SMARCA4 wildtype (blue; RMG1, KK and ES2) and 1 SMARCA4 mutant (red; TOV112D). E. Bar chart illustrating surviving fraction after five days VX-970 exposure in HCC1143 and He1a cells transfected with siRNA targeting either SMARCA4 or ARID1A *p<0.05 by Student's t-test compared to siCon. F. Western blot illustrating level of chromatin bound TOP2A in HCT116 cells transfected siRNA targeting ARID1A, ARID1B or SMARCA4. Cells were analysed 48 hours after transfection. G. A model for the proposed mechanism driving the sensitivity of ARID1A-deficient cells to ATRi. Loss of function genomic alterations to ARID1A (or ARID1B/SMARCA4) lead to dysfunction of the BAF complex. This in turn causes decreased binding of TOP2A to chromatin, reducing the efficiency of chromosomal decatenation. […]
smiles,measurement,setting,value
"CNCc1ccc(-c2cc(-c3nc(-c4ccc(S(=O)(=O)C(C)C)cc4)cnc3N)on2)cc1 [VX-970, 5-[4-(Isopropylsulfonyl)phenyl]-3-(3-{4-[(methylamino)methyl]phenyl}-1,2-oxazol-5-yl)-2-pyrazinamine]",sensitivity of SS tumour cell lines vs Ewing's sarcoma and ARID1A defective tumour cells,[1]; AUC and SF50 comparison,VX970 sensitivity comparable
same,IC50,"[1]; Homo sapiens, 120 h, each of five SS tumour cell lines, five days exposure, read-out: SF50 (concentration required to cause 50% reduction in cell survival)",~0.1 µM
same,sensitivity of SS tumour cell lines vs ARID1A defective HCT116 cells,[1]; five days,as sensitive to VX970 as HCT116 cells
same,sensitivity of SS tumour cell lines vs ATRi resistant HCT116 cells,"[1]; five days, ANOVA p<0.0001",profoundly sensitive to VX970
same,VX-970 sensitivity caused by SMARCA4 silencing vs ARID1A siRNA,HCC1143 and HeLa cells,comparable to that caused by ARID1A siRNA

# Source: US12233060B2, “Inhibitors of Ataxia-Telangiectasia Mutated and Rad3-related protein kinase (ATR) for use in methods of treating cancer” (THE INSTITUTE OF CANCER RESEARCH: ROYAL CANCER HOSPITAL, priority 2016, dated 2025)
